Here are results for two molecules from patent US7667052B2 (Eisai R&D Management Co., Ltd., priority 2003, dated 2010).

For one assay, the system named is P388 mouse leukemia cell. The settings on record: Seki-Asano M. et al, J. Antibiotics Vol. 47, 1395-1401, 1994; cited from earlier work.
Assay [1] has as its system VEGF production in U251 human glioma cell. Description: VEGF production suppressing action under low oxygen, ELISA. Type of assay: cell-based. The settings on record: U251, low oxygen (2% O2) incubator 18 hours. As for the experimental part: U251 human glioma cell cultured in DULBECCO-modified eagle medium (DMEM; manufactured by SIGMA Co., Ltd.) containing 10% fetal calf serum, penicillin (100 unit/ml) and streptomycin (100 μg/ml) was dispensed in 96-well plates by 4×10^4 cells/well. After culturing at 37° C. overnight in a CO2 incubator (5% CO2), the media were removed, and 180 μl of the above-mentioned incubation solution was charged. After adding 20 μL of the above-mentioned incubation solution containing the test compound diluted with 3-fold succession, they were incubated in a low oxygen (2% O2) incubator for 18 hours. The supernatants thereof were measured by an ELISA kit (Immunobiology Research Institute).
Concentration at which the amount of VEGF expressed by low oxygen stimulation was suppressed to 50% (IC50 value) was determined and results are shown in Table 9. […] The activities of 11107F and 11107G were very weak.
In general terms: An ELISA detects its analyte on a solid surface through an enzyme-linked reagent.

In assay [2] the test system is human breast cancer BSY-1 cell. Description: Solid cancer proliferation suppressing action, subcutaneous transplant. Type of assay: in vivo, mice. The following applies: 10 mg/kg once intravenous. As to the method: In order to study solid cancer proliferation suppressing action of 11107B in vivo, human breast cancer BSY-1 cell was transplanted to the subcutaneous body sides of mice. The animals were grouped so that the average of the volumes of the respective groups became uniform, when it reached about 100 mm^3. Control group was made as 10 mice and 11107B-administering groups were made as 5 mice. 11107B was administrated for the 11107B-administering groups once by intravenous injection so as to be 10 mg/kg, and a vehicle was administered to the control group. The tumor volumes on the fifth day, eighth day, 12th day and 15th day were measured, and relative tumor volumes were determined setting the tumor volume at the initiation of administration as 1.

As for `CCC(OC)C(C)C1OC1C(O)C(C)/C=C/C=C(\C)C1OC(=O)CC(O)CCC(C)(O)C(OC(C)=O)/C=C/C1C` (stereo not shown) [FD895], the “effect in an animal experiment using P388 mouse leukemia cell” value with P388 mouse leukemia cell is reported as “ineffective”.
As for `CCC(O)C(C)C1OC1CC(C)/C=C/C=C(\C)C1OC(=O)CC(O)CCC(C)(O)C(OC(C)=O)/C=C/C1C` (stereo not shown) [11107 B], the “VEGF production suppressing action: IC50” value in assay [1] worked out at 0.8 ng/mL. Further, the relative tumor volume in assay [2] (day 1 after the administration (volume at initiation of administration set as 1)) worked out at 1; in assay [2] (day 5 after the administration) it was 1.08; in assay [2] (day 8 after the administration), 1.28; in assay [2] (day 12 after the administration) it was 1.40; in assay [2] (day 15 after the administration) it was 1.70.
